Experimental findings from patent US5462954A, “Substituted phenyl phenol leukotriene antagonists” (Eli Lilly and Company, priority 1994, dated 1995) are described below.

Counter-ions that a name gives are not always drawn.

The target in this assay is binding of tritiated LTB4 to guinea pig lung membranes (Cavia porcellus, UniProt H0VYV8). The assay is described as follows: biochemical. Conditions: read-out: pKi (mean -log Ki) (converted).
Sequence of binding of tritiated LTB4 to guinea pig lung membranes (H0VYV8 1-348): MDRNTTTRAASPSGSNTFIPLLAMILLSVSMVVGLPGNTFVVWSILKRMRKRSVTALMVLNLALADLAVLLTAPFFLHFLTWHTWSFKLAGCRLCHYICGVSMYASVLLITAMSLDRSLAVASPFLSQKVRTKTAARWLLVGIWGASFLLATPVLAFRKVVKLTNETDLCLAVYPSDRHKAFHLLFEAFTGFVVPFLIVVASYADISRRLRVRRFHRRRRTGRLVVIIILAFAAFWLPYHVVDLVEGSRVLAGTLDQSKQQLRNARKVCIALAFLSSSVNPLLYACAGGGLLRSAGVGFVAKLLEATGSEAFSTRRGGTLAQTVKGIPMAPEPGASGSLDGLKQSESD
Procedure: The effectiveness of compounds of Formula I to inhibit the binding of tritiated LTB4 to guinea pig lung membranes was determined as follows.
The binding reaction was terminated by the addition of 1 mL ice cold wash buffer (25 mM Tris-HCl, pH 7.5) followed immediately by vacuum filtration over Whatman GF/C glass fiber filters using a Brandel (Gaithersburg, Md.) 48 place harvester. The filters were washed three times with 1 mL of wash buffer. Retained radioactivity was determined by liquid scintillation counting at 50% counting efficiency using Ready Protein Plus cocktail (Beckman, Fullerton, Calif.). Nondisplaceable binding was determined in the presence of 1 μM LTB4 and was usually less than 10% of total binding. […] The data reported below is the mean -log Ki, otherwise known as the pKi, for n experiments.
One may read the Ki as a dissociation constant, usually derived from enzyme kinetics or from competition with a known ligand. Take `CCc1cc(-c2ccc(F)cc2)c(O)cc1OCC/C=C\c1ccccc1CCC(=O)O` [9 (cis), 3-(2-(4-(2-Ethyl-4-(4-fluorophenyl)-5-hydroxyphenoxy)-(1-butenyl))phenyl)propionic acid]: the Ki was 3.63 nM. Next, `CCc1cc(-c2ccc(F)cc2)c(O)cc1OCC/C=C/c1ccccc1CCC(=O)O` [9 (trans), 3-(2-(4-(2-Ethyl-4-(4-fluorophenyl)-5-hydroxyphenoxy)-(1-butenyl))phenyl)propionic acid]: 3.89 nM; `CCc1cc(-c2ccc(F)cc2)c(O)cc1OCCCOc1cccc(OCCCCC(=O)N(C)C)c1CCC(=O)O` [Example 3, 3-(2-(3-(2-Ethyl-4-(4-fluorophenyl)-5-hydroxyphenoxy)propoxy)-6-(4-dimethylaminocarbonylbutyloxy)phenyl)propionic acid]: 8.32 nM; `CCc1cc(-c2ccc(F)cc2)c(O)cc1OCCCOc1ccccc1CCC(=O)O` [Example 4, 3-(2-(3-(2-Ethyl-4-(4-fluorophenyl)-5-hydroxyphenoxy)propoxy)phenyl)propionic acid]: 3.63 nM. As to `CCc1cc(-c2ccc(F)cc2)c(O)cc1OCCCOc1cccc(OCCCCC(=O)O)c1CCC(=O)O` [Example 5, 3-(2-(3-(2-Ethyl-4-(4-fluorophenyl)-5-hydroxyphenoxy)propoxy)-6-(4-carboxybutyloxy)phenyl)propionic acid], the Ki is 0.55 nM. Under `CCc1cc(-c2ccc(F)cc2)c(O)cc1OCCCOc1cccc(OC)c1CCC(=O)O` [Example 6, 3-(2-(3-(2-Ethyl-4-(4-fluorophenyl)-5-hydroxyphenoxy)propoxy)-6-methoxyphenyl)propionic acid] stands 5.01 nM. For `CCc1cc(-c2ccc(F)cc2)c(O)cc1OCCCOc1cccc(OCCCCc2nnn[nH]2)c1CCC(=O)O` [Example 7, 3-(2-(3-(2-Ethyl-4-(4-fluorophenyl)-5-hydroxyphenoxy)propoxy)-6-(4-(1H-tetrazol-5-yl)butyloxy)phenyl)propionic acid], the Ki was 1.35 nM. On to `CCc1cc(-c2ccc(F)cc2)c(O)cc1OCCC=Cc1ccccc1CCC(=O)O` [Example 9, 3-(2-(4-(2-Ethyl-4-(4-fluorophenyl)-5-hydroxyphenoxy)-(1-butenyl))phenyl)propionic acid], for which the Ki was 5.13 nM. In the case of `CCc1cc(-c2ccc(F)cc2)c(O)cc1OCCCCc1ccccc1CCC(=O)O` [Example 10, 3-(2-(4-(2-Ethyl-4-(4-fluorophenyl)-5-hydroxyphenoxy)butyl)phenyl)propionic acid], the Ki is 8.91 nM. On to `CCc1cc(-c2ccc(F)cc2)c(O)cc1OCCCCc1cccc(OC)c1CCC(=O)O` [Example 11, 3-(2-(4-(2-Ethyl-4-(4-fluorophenyl)-5-hydroxyphenoxy)butyl)-6-methoxyphenyl)propionic acid], for which the Ki is 21.4 nM. For the compound `CCc1cc(-c2ccc(F)cc2)c(O)cc1OCCCOc1cccc(O)c1CCC(=O)O` [Example 13, 3-(2-(3-(2-Ethyl-4-(4-fluorophenyl)-5-hydroxyphenoxy)propoxy)-6-hydroxyphenyl)propionic acid], the Ki is 0.977 nM. In the case of `CCCCOc1cccc(OCCCOc2cc(O)c(-c3ccc(F)cc3)cc2CC)c1CCC(=O)O` [Example 14, 3-(2-(3-(2-Ethyl-4-(4-fluorophenyl)-5-hydroxyphenoxy)propoxy)-6-(4-butyloxy)phenyl)propionic acid], the Ki is 30.2 nM. In the case of `CCc1cc(-c2ccc(F)cc2)c(O)cc1OCCCOc1cccc(OCCCCSC)c1CCC(=O)O` [Example 15, 3-(2-(3-(2-Ethyl-4-(4-fluorophenyl)-5-hydroxyphenoxy)propoxy)-6-(4-methylthiobutyloxy)phenyl)propionic acid], the inhibitory constant (Ki) was 5.89 nM. Next, `O=C(O)CCCCOc1cccc(OCCCOc2cc(O)c(-c3ccc(F)cc3)cc2-c2ccc(F)cc2)c1CCC(=O)O` [Example 16, 3-(2-(3-(2,4-Di(4-fluorophenyl)-5-hydroxyphenoxy)propoxy)-6-(4-carboxybutoxy)phenyl)propionic acid]: 17.4 nM; `CCCCCC(C)(CCCCCOc1cc(O)c(-c2ccc(F)cc2)cc1CC)c1nnn[nH]1` (centres unmarked) [Example 17, 6-Methyl-6-(1H-tetrazol-5-yl)-11-(2-ethyl-4-(4-fluorophenyl)-5-hydroxyphenoxy)undecane]: 53.7 nM; `CCc1cc(-c2ccc(F)cc2)c(O)cc1OCCCOc1ccccc1CCC(=O)N(C)C` [Example 18, N,N-Dimethyl-3-(2-(3-(2-ethyl-4-(4-fluorophenyl)-5-hydroxyphenoxy)propoxy)phenyl)propionamide]: 245 nM. As to `CCc1cc(-c2ccc(F)cc2)c(O)cc1OCCCOc1ccccc1CCC(=O)NS(C)(=O)=O` [Example 19, N-Methanesulfonyl-3-(2-(3-(2-ethyl-4-(4-fluorophenyl)-5-hydroxyphenoxy)propoxy)phenyl)propionamide], the Ki was 1.51 nM. Consider `CCc1cc(-c2ccc(F)cc2)c(O)cc1OCCCOc1ccccc1CCC(=O)NS(=O)(=O)c1ccccc1` [Example 20, N-Phenylsulfonyl-3-(2-(3-(2-ethyl-4-(4-fluorophenyl)-5-hydroxyphenoxy)propoxy)phenyl)propionamide], for which the Ki was 2.29 nM. Under `CCCCc1cc(-c2ccc(F)cc2)c(O)cc1OCCCOc1ccccc1CCC(=O)O` [Example 21, 3-(2-(3-(2-Butyl-4-(4-fluorophenyl)-5-hydroxyphenoxy)propoxy)phenyl)propionic acid] stands 47.9 nM; under `CCc1cc(-c2ccc(F)cc2)c(O)cc1OCCCCOc1ccccc1CCC(=O)O` [Example 23, 3-(2-(4-(2-Ethyl-4-(4-fluorophenyl)-5-hydroxyphenoxy)butyloxy)phenyl)propionic acid], 3.72 nM; under `CCc1cc(-c2ccc(F)cc2)c(O)cc1OCCCOc1cccc(Oc2ccc(C(=O)O)cc2)c1CCC(=O)O` [Example 25, 3-(2-(3-(2-Ethyl-4-(4-fluorophenyl)-5-hydroxyphenoxy)propoxy)-6-(4-carboxyphenoxy)phenyl)propionic acid], 0.138 nM. On to `CCc1cc(-c2ccc(F)cc2)c(O)cc1OCCCOc1cc(Oc2ccc(C(=O)O)cc2)ccc1CCC(=O)O` [Example 26, 3-(2-(3-(2-Ethyl-4-(4-fluorophenyl)-5-hydroxyphenoxy)propoxy)-4-(4-carboxyphenoxy)phenyl)propionic acid], for which the Ki was 13.8 nM. For `CCc1cc(-c2ccc(F)cc2)c(O)cc1OCCCOc1ccccc1C(C)(C)CC(=O)O` [Example 27, 3,3-Dimethyl-3-(2-(3-(2-ethyl-4-(4-fluorophenyl)-5-hydroxyphenoxy)propoxy)phenyl)propionic acid], the inhibition constant (Ki) is 2.29 nM. For the compound `CCc1cc(-c2ccc(F)cc2)c(O)cc1OCCCOc1ccccc1CC(C)(C)c1nnn[nH]1` [Example 28, 2-Methyl-2-(1H-tetrazol-5-yl)-3-(2-(3-(2-ethyl-4-(4-fluorophenyl)-5-hydroxyphenoxy)propoxy)phenyl)propane], the Ki was 2.69 nM. With `CCc1cc(-c2ccc(F)cc2)c(O)cc1OCCCOc1ccccc1C(O)C(C)(C)c1nnn[nH]1` (centres unmarked) [Example 29, 2-Methyl-2-(1H-tetrazol-5-yl)-3-hydroxy-3-(2-(3-(2-ethyl-4-(4-fluorophenyl)-5-hydroxyphenoxy)propoxy)phenyl)propane], the Ki is 1.95 nM. For the compound `O=C(O)CCc1ccccc1OCCCOc1cc(O)c(-c2ccc(F)cc2)cc1Br` [Example 30, 3-(2-(3-(2-Bromo-4-(4-fluorophenyl)-5-hydroxyphenoxy)propoxy)phenyl)propionic acid], the Ki was 186 nM. Next, `CCSc1cc(-c2ccc(F)cc2)c(O)cc1OCCCOc1ccccc1CCC(=O)O` [Example 31, 3-(2-(3-(2-Ethylthio-4-(4-fluorophenyl)-5-hydroxyphenoxy)propoxy)phenyl)propionic acid]: 81.3 nM; `CCc1cc(-c2ccc(F)cc2)c(O)cc1OCCCOc1ccc(CCCCC(=O)O)c2c1CCC(=O)O2` [Example 33, 5-(3-(2-Ethyl-4-(4-fluorophenyl)-5-hydroxyphenoxy)propoxy)-8-(4-carboxybutyl)dihydrocoumarin]: 0.257 nM; `CCc1cc(-c2ccccc2)c(O)cc1OCCCOc1ccc2c(c1CCC(=O)O)CCC(CC(=O)O)C2=O` (centres unmarked) [Example 50, 3-(5-(6-(4-Phenyl-5-hydroxy-2-ethylphenoxy)propoxy)-2-carboxymethyl-1,2,3,4-tetrahydronaphthalen-1(2H)-one)propanoic acid]: 0.851 nM. Under `CCc1cc(-c2ccc(F)cc2)c(O)cc1OCCCOc1ccc2c(c1CCC(=O)O)CCC(CC(=O)O)C2=O` (centres unmarked) [Example 51, 3-(5-(6-(4-(4-Fluorophenyl)-5-hydroxy-2-ethylphenoxy)propoxy)-2-carboxymethyl-1,2,3,4-tetrahydronaphthalen-1(2H)-one)propanoic acid] stands 0.219 nM. Take `CCc1cc(-c2ccc(F)cc2)c(O)cc1OCCCOc1ccc2c(c1CCC(=O)O)CC(CC(=O)O)C2=O` (centres unmarked) [Example 52, 3-(4-(5-(4-(4-Fluorophenyl)-5-hydroxy-2-ethylphenoxy)propoxy)-2-carboxymethyl-2,3-dihydroinden-1(2H)-one)propanoic acid]: the Ki was 0.263 nM.

Turning to `CCc1cc(-c2ccc(F)cc2)c(O)cc1OCCCOc1ccc(C(=O)CC(C)(C)CC(=O)O)cc1CCC(=O)O` [Example 53], the Ki is 1.55 nM. For the compound `CCCc1c(OCCCOc2cc(O)c(-c3ccccc3)cc2CC)ccc2c1OC(C(=O)O)CC2` (centres unmarked) [Example 54, 7-[3-[(5-Ethyl-2-hydroxy[1,1'-biphenyl]-4-yl)oxy]propoxy]-3,4-dihydro-8-propyl-2H-1-benzopyran-2-carboxylic acid], the Ki was 1.2 nM. Next, `CCc1cc(-c2ccccc2)c(O)cc1OCCCOc1ccc2oc3ccccc3c2c1CCC(=O)O` [Example 59, 3-[2-[3-[(5-Ethyl-2-hydroxy[1,1'-biphenyl]-4-yl)oxy]propoxy]-1-dibenzofuran]propanoic acid disodium salt]: 51.3 nM; `CCc1cc(-c2ccccc2)c(O)cc1OCCCOc1ccc2c(=O)c3cc(C(=O)O)ccc3oc2c1CCC(=O)O` [Example 60, 7-Carboxy-9-oxo-3-[3-(2-ethyl-5-hydroxy-4-phenylphenoxy)propoxy]-9H-xanthene-4-propanoic acid disodium salt monohydrate]: 0.0646 nM.
